Measured values: patent publication US20210138025A1, “CATIONIC PEPTIDES WITH IMMUNOMODULATORY AND/OR ANTI-BIOFILM ACTIVITIES” (priority 2018, published 2021)
No end group written: not given here.

Columns and labels:
S. aureus (Sau) [1] = type: cell-based; details: Sau
E. coli (Ec) [2] = type: cell-based; details: Ec
Experimental: (§1) The same strains as in Table 18 were assessed for Minimal Biofilm Inhibitory Concentrations (MBIC) (Table 19). Italics=excellent activity (less than or equal to 4 μg/ml). ND=Not determined. Peptides 3013, 3015 and 3016 inhibited biofilm growth in the largest number of bacterial strains (5, 5 and 6 out of 13 strains, respectively).
(§2) In addition, several peptides expressed preferential activity vs. biofilms (MBIC) cf. planktonic cells (MIC) (Table 20).

S. aureus (Sau) [3] = type: cell-based; details: Sau; remark: listed apart in the source
Experimental: as §1, §2

E. coli (Ec) [4] = type: cell-based; details: Ec; remark: listed apart in the source
[5] = tested on: planktonic methicillin resistant S. aureus; test: microbe, parasite or virus in culture; type: cell-based, Staphylococcus aureus; details: planktonic methicillin resistant
PBMCs = test: Cytotoxicity towards PBMCs, lactate dehydrogenase (LDH) release assay (Tables 6, 7); details: SPOT synthesized peptide ~25 μM, PBMCs from 3 human donors; Table 6
MCP-1 = MCP-1 chemokine induction in human PBMCs, ELISA (Tables 6, 7; FIGS. 6-9, 13); type: cell-based; details: SPOT synthesized control peptides, determined as in Table 6; Table 7
Experimental: Venous blood (20 ml) from healthy volunteers was collected in Vacutainer® collection tubes containing sodium heparin as an anticoagulant (Becton Dickinson, Mississauga, ON) in accordance with UBC ethical approval and guidelines. Blood was diluted 1:1 with complete RPMI 1640 medium and separated by centrifugation over a Ficoll-Paque® Plus (Amersham Biosciences, Piscataway, N.J., USA) density gradient. White blood cells were isolated from the buffy coat, washed twice in PBS and then resuspended in RPMI 1640 complete medium (containing 10% fetal bovine serum), and the number of peripheral blood mononuclear cells (PBMC) was determined by Trypan blue exclusion. PBMCs (5×10^5) were seeded into 12-well tissue culture dishes (Falcon; Becton Dickinson) at 0.75-1×10^6 cells/ml at 37° C. in 5% CO2. The above conditions were chosen to mimic conditions for circulating blood monocytes entering tissues at the site of infection via extravasation.
Following incubation of the cells under various treatment regimens, the tissue culture supernatants were centrifuged at 1000×g for 5 min, then at 10,000×g for 2 min to obtain cell-free samples. Supernatants were aliquoted and then stored at −20° C. prior to assay for various chemokines by capture ELISA (eBioscience and BioSource International Inc., CA, USA respectively)

S. aureus (MRSA SAP0017) = type: cell-based, Staphylococcus aureus; details: SPOT synthesized control peptides, determined as in Table 5; Table 7
In short: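 Static biofilm assay: 1/100 dilutions of overnight cultures grown with peptide at varying concentrations, added at time zero, in BM2 biofilm medium or tryptic soy broth plus 1% glucose in polypropylene plates. After 22-46 h, adherent biofilm stained with crystal violet and absorbance read at 595 nm.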

IL-1β = test: Suppression of LPS-induced IL-1β production in human PBMCs, ELISA (Tables 6, 7; FIGS. 6-9, 13); details: SPOT synthesized control peptides, determined as in Table 6; Table 7

Row | Substance | MCPI production in PBMC (MCP-1) | % Biofilm Inhibition (S. aureus (MRSA SAP0017)) | Fold Change in IL1-β relative to untreated LPS-stimulated cells (IL-1β) | other results
1 | WKKVQWLKRLLL-NH2 [Peptide 3003, WKKVQWLKRLLL] | – | – | – | MIC S. aureus (S. aureus (Sau) [1]): 16 µg/mL; MBIC E. coli (E. coli (Ec) [2]): 2 µg/mL; MBIC S. aureus (S. aureus (Sau) [3]): 1 µg/mL; MIC E. coli (E. coli (Ec) [4]): 4 µg/mL; MIC (μM) MHB [5]: 4 µM; MIC (μM) TSB with 1% Glucose [5]: 16 µM; % Toxicity (LDH Release) (PBMCs): 22.5%
2 | C23 (LKKIIVQAVGLI) [Peptide C23] | 653 pg/mL | 97% | 0.95 | –
3 | C12 (VIRAKAVWGWVK) [Peptide C12] | 498 pg/mL | 104% | 1.01 | –
4 | C34 (WRIKKQWIQIIV) [Peptide C34] | 217 pg/mL | 99% | 1.13 | –
5 | C26 (VWLAQKIGKWIW) [Peptide C26] | 1153 pg/mL | 100% | 1.41 | –
6 | C13 (VARAVQKRWRKK) [Peptide C13] | 221 pg/mL | 105% | 1.55 | –
7 | C43 (AVIVRAAKGGAR) [Peptide C43] | 100 pg/mL | 103% | 0.99 | –
8 | C48 (KVIKIVLVRVVK) [Peptide C48] | 1752 pg/mL | 99% | 1.07 | –
9 | C28 (WIIRWIKIWLKI) [Peptide C28] | 444 pg/mL | 72% | 0.88 | –
10 | C50 (IKIVRRAKIIIW) [Peptide C50] | 222 pg/mL | 94% | 0.91 | –
11 | C11 (KAVKKGRRAIVV) [Peptide C11] | 197 pg/mL | 106% | 1.12 | –
12 | C46 (IQIWIIRVIWRW) [Peptide C46] | 697 pg/mL | 102% | 0.91 | –
13 | C22 (LLIAGKWWKLAI) [Peptide C22] | 153 pg/mL | 103% | 0.83 | –
14 | C14 (VKAKRWKWAQLA) [Peptide C14] | 209 pg/mL | 104% | 1.2 | –
15 | C27 (KKAIKVVAIGRI) [Peptide C27] | 50 pg/mL | 102% | 1.06 | –
16 | C49 (WLKRIVKVVVLK) [Peptide C49] | 1557 pg/mL | 103% | 0.8 | –
17 | C37 (QQKVIRLLWKAK) [Peptide C37] | 216 pg/mL | 102% | 0.83 | –
18 | C25 (IGQVVLVKIKIA) [Peptide C25] | 1762 pg/mL | 98% | 1.21 | –

Row | Substance | MCPI production in PBMC (MCP-1) | % Biofilm Inhibition (S. aureus (MRSA SAP0017)) | Fold Change in IL1-β relative to untreated LPS-stimulated cells (IL-1β) | other results
19 | C15 (KRVQAKAWRLQR) [Peptide C15] | 297 pg/mL | 100% | 0.94 | –
20 | C55 (VAKVKKARWRLR) [Peptide C55] | 208 pg/mL | 102% | 0.92 | –
21 | C42 (AIGAARAWRQWA) [Peptide C42] | 114 pg/mL | 102% | 0.85 | –
22 | C35 (IILKRVQVQKIK) [Peptide C35] | 481 pg/mL | 101% | 1.1 | –
23 | C18 (IQIQLVKRWAVI) [Peptide C18] | 1768 pg/mL | 100% | 0.92 | –
24 | C39 (KIKLIQKQLRIK) [Peptide C39] | 286 pg/mL | 98% | 0.84 | –
25 | C36 (KRIKKLLKVVLK) [Peptide C36] | 719 pg/mL | 100% | 0.92 | –
26 | C21 (VLLRVGARIVVG) [Peptide C21] | 345 pg/mL | 99% | 0.83 | –
27 | C17 (QQLRWKRVAKAI) [Peptide C17] | 1677 pg/mL | 100% | 1.05 | –
28 | C24 (LKILIAQAKKGL) [Peptide C24] | 1280 pg/mL | 101% | 1.4 | –
29 | C19 (RLIQWGWKIWAV) [Peptide C19] | 738 pg/mL | 99% | 0.94 | –
30 | C38 (RIWRRAWKARWK) [Peptide C38] | 251 pg/mL | 102% | 1.06 | –
31 | C40 (ALLAGRKRAVAV) [Peptide C40] | 39 pg/mL | 102% | 0.89 | –
32 | C56 (IIKWIVVRQIRK) [Peptide C56] | 57 pg/mL | 102% | 0.85 | –
33 | C31 (RAIIKQRWQRRW) [Peptide C31] | 1649 pg/mL | 103% | 1.09 | –
34 | C41 (KAVAGARQRWAL) [Peptide C41] | 353 pg/mL | 101% | 0.82 | –
35 | C51 (VKWKGKVIVVQL) [Peptide C51] | 862 pg/mL | 79% | 0.81 | –
36 | C32 (QRWKKWKVLKLR) [Peptide C32] | 1614 pg/mL | 102% | 1.11 | –
